Values of other authors in patent US20240173301A1, “2-IMINOBIOTIN FOR USE IN THE TREATMENT OF STROKE” (NEUROPHYXIA B.V., priority 2021, published 2024).
Like-named read-outs stand apart in the source and are kept apart here. Where no end group is shown, it is not given here.

What was measured:
[1] = adult human patients after cardiac arrest
[2] = in vivo
[3] = test system: neuronal culture
[4] = healthy volunteers; preclinical safety; Phase I and II studies in neonates with asphyxia and adults after cardiac arrest
[5] = single dose

## N=C1N[C@H]2[C@H](CS[C@H]2CCCCC(=O)O)N1 [2-IB, 2-iminobiotin]
[1]
  tolerability of eGFR adjusted dose: tolerated without clinical drug-related adverse events
[2]
  effect on tissue damage after ischemia-reperfusion: prevents (further) tissue damage
[3]
  concentration range at which 2-IB is most active in vitro: around 30 ng/ml
[4]
  safety: proven to be safe

## YGRKKRRQRRRKLSSIESDV [nerinetide]
[5]; alteplase-treated stroke patients
  clinical outcome: did not show favorable outcomes
[5]; stroke patients that did not receive alteplase
  clinical outcome: significant improvement
